Drawing on US9630977B2, “Cephalosporin derivatives and pharmaceutical compositions thereof” (Legochem Biosciences, Inc., priority 2011, dated 2017), this text covers MIC90 for four molecules.

Assay in all cases: In vitro antibacterial activity test (broth microdilution)
Type in all cases: cell-based

One experiment concerns K. pneumoniae β9. To be noted: K. pneumoniae β9. How it is done:
(§1) To evaluate antibacterial activity of each of the compounds of Examples 1 to 68, in vitro antibacterial activity test was performed.
(§2) The in vitro antibacterial activity was evaluated by measuring MIC90 (ug/mL) of each of the compounds of Examples 1 to 68, which is defined as the lowest concentration of an antibiotic that will inhibit the visible growth of 90% of microorganisms after incubation as compared with a control group to which the antibiotic is not treated. MIC90 values were measured by the broth microdilution method developed by the Clinical and Laboratory Standards Institute (CLSI) (see CLSI M7-A5, Methods for Dilution Antimicrobial Susceptibility Test for Bacteria that Grow Aerobically-Fifth Edition (2000): CLSI, Villanova, Pa.).
(§3) In vitro antibacterial activity was measured with respect to the following 19 clinical isolates: M. catarrhalis; P. aeruginosa (5 strains); K. pneumoniae (6 strains); A. baumannii (3 strains); E. coli (2 strains); A. calcoaceticus; and E. cloacae.
(§4) Test compounds each (the cephalosporin derivative compounds prepared in Examples 1 to 68) were dissolved in DMSO at the concentration of 10,240 ug/mL, were diluted by two fold with DMSO, and then were diluted by twenty fold with sterilized distilled water. The final concentration in the antibacterial activity test was in the range of […] to 128 ug/mL, and the final concentration of DMSO used as an adjuvant was 2.5% (V/V).

A further experiment concerns K. pneumoniae β13. The conditions noted are these: K. pneumoniae β13. How it is done:
as §1, §2, §3, §4

Another experiment deals with P. aeruginosa 40. How it is done: as §1, §2, §3, §4
Another experiment relates to K. pneumoniae β10. The conditions noted are these: K. pneumoniae β10. How it is done: as §1, §2, §3, §4
Another experiment has as its system E. coli β4. As for the experimental part: as §1, §2, §3, §4
For a further experiment, the system named is M. catarrhalis 2524. The conditions noted are these: Moraxella catarrhalis; M. catarrhalis 2524; read-out: MIC90. As for the experimental part:
as §1, §2, §3, §4

Another experiment concerns P. aeruginosa 6065Y. The conditions noted are these: Pseudomonas aeruginosa, read-out: MIC90. How it is done: as §1, §2, §3, §4
The next experiment deals with P. aeruginosa 43. To be noted: P. aeruginosa 43. How it is done: as §1, §2, §3, §4
The next experiment concerns P. aeruginosa 37. As for the experimental part:
as §1, §2, §3, §4

The next experiment deals with A. baumannii 52. To be noted: A. baumannii 52. As for the experimental part: as §1, §2, §3, §4
Experiment [1] has as its system A. calcoaceticus ATCC15473. To be noted: A. calcoaceticus ATCC15473. As for the experimental part:
as §1, §2, §3, §4

A further experiment deals with A. baumannii 49. The conditions noted are these: A. baumannii 49. How it is done: as §1, §2, §3, §4
The next experiment has as its system E. coli AG100. As for the experimental part: as §1, §2, §3, §4
Another experiment relates to E. cloacae β19. How it is done: as §1, §2, §3, §4
The subject of another experiment is P. aeruginosa 1912E. As for the experimental part:
as §1, §2, §3, §4

The next experiment has as its system A. baumannii 46. To be noted: A. baumannii 46. How it is done:
as §1, §2, §3, §4

The next experiment has as its system K. pneumoniae β14. How it is done: as §1, §2, §3, §4
A further experiment has as its system K. pneumoniae β11. To be noted: K. pneumoniae β11. As for the experimental part:
as §1, §2, §3, §4

The next experiment relates to K. pneumoniae 2011E. To be noted: K. pneumoniae 2011E. How it is done: as §1, §2, §3, §4
Setting [2] is: Klebsiella pneumoniae, read-out: MIC90.
Setting [3] is: Pseudomonas aeruginosa, 40, P. aeruginosa 40, read-out: MIC90.
Where [4] appears, read: Escherichia coli, read-out: MIC90.
Where [5] appears, read: Pseudomonas aeruginosa, read-out: MIC90.
Where [6] appears, read: Pseudomonas aeruginosa, 37, P. aeruginosa 37, read-out: MIC90.
Where [7] appears, read: Acinetobacter baumannii, read-out: MIC90.
Where [8] appears, read: Acinetobacter calcoaceticus, read-out: MIC90.
The mark [9] stands for this setting: Escherichia coli, AG100, E. coli AG100, read-out: MIC90.
Setting [10] is: Enterobacter cloacae, read-out: MIC90.
Where [11] appears, read: Pseudomonas aeruginosa, 1912E, read-out: MIC90.
Setting [12] is: Klebsiella pneumoniae, 2011E, read-out: MIC90.

SMILES strings stand for the structures. Values after ≈ are worked out from the molar mass of the structure shown. Read-outs that look alike come from different tables or passages of the source.

Regarding `CC(C)(O/N=C(\C(=O)N[C@@H]1C(=O)N2C(C(=O)[O-])=C(C[n+]3cnc(N)c(NCCCCNC(=O)c4cc(=O)c(O)cn4O)c3)CSC12)c1csc(N)n1)C(=O)O` (stereo partly shown) [Compound 7], the MIC90 in the experiment with K. pneumoniae β9 (setting [2]) was less than 0.0625 µg/mL; with K. pneumoniae β13 (setting [2]), less than 0.0625 µg/mL; with P. aeruginosa 40 (setting [3]) it was 0.125 µg/mL (≈ 0.156 µM); with K. pneumoniae β10 (setting [2]), 4 µg/mL (≈ 4.99 µM); with E. coli β4 (setting [4]), 0.125 µg/mL (≈ 0.156 µM); with M. catarrhalis 2524 it was 2 µg/mL (≈ 2.49 µM). For the same molecule, the MIC90 in the experiment on P. aeruginosa 6065Y was 1 µg/mL (≈ 1.25 µM); in the experiment on P. aeruginosa 43 (setting [5]), 0.25 µg/mL (≈ 0.312 µM); with P. aeruginosa 37 (setting [6]), 0.125 µg/mL (≈ 0.156 µM); in the experiment on A. baumannii 52 (setting [7]) it was 16 µg/mL (≈ 20 µM); in [1] (setting [8]), 1 µg/mL (≈ 1.25 µM); in the experiment with A. baumannii 49 (setting [7]), 8 µg/mL (≈ 9.98 µM). Further, the MIC90 in the experiment on E. coli AG100 (setting [9]) is less than 0.0625 µg/mL; with E. cloacae β19 (setting [10]), 1 µg/mL (≈ 1.25 µM); in the experiment with P. aeruginosa 1912E (setting [11]), 0.5 µg/mL (≈ 0.624 µM); in the experiment with A. baumannii 46 (setting [7]), 4 µg/mL (≈ 4.99 µM); with K. pneumoniae β14 (setting [2]), 32 µg/mL (≈ 39.9 µM); in the experiment with K. pneumoniae β11 (setting [2]) it was 16 µg/mL (≈ 20 µM). The MIC90 with K. pneumoniae 2011E (setting [12]) was determined as 2 µg/mL (≈ 2.49 µM).

For `C[C@H](O/N=C(\C(=O)N[C@@H]1C(=O)N2C(C(=O)[O-])=C(/C=C/C[n+]3cnc(N)c(NCCNC(=O)c4cc(=O)c(O)cn4O)c3)CSC12)c1csc(N)n1)C(=O)O` (stereo partly shown) [Compound 9], the MIC90 in the experiment with K. pneumoniae β9 (setting [2]) was 1 µg/mL (≈ 1.27 µM); in the experiment on K. pneumoniae β13 (setting [2]) it was 0.25 µg/mL (≈ 0.318 µM); with P. aeruginosa 40 (setting [3]) it was less than 0.0625 µg/mL; in the experiment on K. pneumoniae β10 (setting [2]) it was 0.125 µg/mL (≈ 0.159 µM); in the experiment with E. coli β4 (setting [4]), 1 µg/mL (≈ 1.27 µM); in the experiment on M. catarrhalis 2524, 0.5 µg/mL (≈ 0.636 µM). Also, the MIC90 in the experiment on P. aeruginosa 6065Y is 0.25 µg/mL (≈ 0.318 µM); in the experiment on P. aeruginosa 43 (setting [5]), 0.25 µg/mL (≈ 0.318 µM); with P. aeruginosa 37 (setting [6]), 0.25 µg/mL (≈ 0.318 µM); with A. baumannii 52 (setting [7]) it was greater than 128 µg/mL; in experiment [1] (setting [8]), 0.5 µg/mL (≈ 0.636 µM); in the experiment with A. baumannii 49 (setting [7]), greater than 128 µg/mL. In addition, the MIC90 was less than 0.0625 µg/mL with E. coli AG100 (setting [9]); 2 µg/mL (≈ 2.55 µM) in the experiment on E. cloacae β19 (setting [10]); 0.25 µg/mL (≈ 0.318 µM) in the experiment with P. aeruginosa 1912E (setting [11]); 0.5 µg/mL (≈ 0.636 µM) in the experiment on A. baumannii 46 (setting [7]); 64 µg/mL (≈ 81.4 µM) in the experiment with K. pneumoniae β14 (setting [2]); greater than 128 µg/mL in the experiment on K. pneumoniae β11 (setting [2]). Moreover, in the experiment with K. pneumoniae 2011E (setting [12]), the MIC90 amounted to 0.125 µg/mL (≈ 0.159 µM).

`CC(C)(O/N=C(\C(=O)N[C@@H]1C(=O)N2C(C(=O)[O-])=C(/C=C/C[n+]3cnc(N)c(NCCNC(=O)c4cc(=O)c(O)cn4O)c3)CSC12)c1csc(N)n1)C(=O)O` (stereo partly shown) [Compound 10]: the MIC90 against K. pneumoniae β9 was 0.25 µg/mL (≈ 0.313 µM); in the experiment on K. pneumoniae β13, 2 µg/mL (≈ 2.5 µM); in the experiment with P. aeruginosa 40 (P. aeruginosa 40) it was 1 µg/mL (≈ 1.25 µM); against K. pneumoniae β10, less than 0.0625 µg/mL; against E. coli β4, 0.5 µg/mL (≈ 0.625 µM); in the experiment with M. catarrhalis 2524 it was 0.5 µg/mL (≈ 0.625 µM). Also, the MIC90 with P. aeruginosa 6065Y was 4 µg/mL (≈ 5 µM); in the experiment on P. aeruginosa 43 it was 1 µg/mL (≈ 1.25 µM); with P. aeruginosa 37 (P. aeruginosa 37), 2 µg/mL (≈ 2.5 µM); against A. baumannii 52, greater than 128 µg/mL; in experiment [1] it was 2 µg/mL (≈ 2.5 µM); in the experiment on A. baumannii 49 it was greater than 128 µg/mL. In addition, the MIC90 stood at 0.125 µg/mL (≈ 0.156 µM) against E. coli AG100 (E. coli AG100); 0.5 µg/mL (≈ 0.625 µM) against E. cloacae β19; 4 µg/mL (≈ 5 µM) against P. aeruginosa 1912E; 8 µg/mL (≈ 10 µM) against A. baumannii 46; 8 µg/mL (≈ 10 µM) in the experiment on K. pneumoniae β14; 32 µg/mL (≈ 40 µM) in the experiment on K. pneumoniae β11. Besides, in the experiment on K. pneumoniae 2011E, the MIC90 was determined as 2 µg/mL (≈ 2.5 µM).

`CC(C)(O/N=C(\C(=O)N[C@@H]1C(=O)N2C(C(=O)[O-])=C(/C=C/C[n+]3cnc(N)c(NC(=O)CCNC(=O)c4cc(=O)c(O)cn4O)c3)CSC12)c1csc(N)n1)C(=O)O` (stereo partly shown) [Compound 12]: the MIC90 with K. pneumoniae β9 (setting [2]) was 0.25 µg/mL (≈ 0.302 µM); in the experiment on K. pneumoniae β13 (setting [2]), less than 0.0625 µg/mL; in the experiment on P. aeruginosa 40 (setting [3]), 1 µg/mL (≈ 1.21 µM); with K. pneumoniae β10 (setting [2]) it was 0.25 µg/mL (≈ 0.302 µM); in the experiment with E. coli β4 (setting [4]) it was 0.25 µg/mL (≈ 0.302 µM); with M. catarrhalis 2524, 1 µg/mL (≈ 1.21 µM). Also, the MIC90 in the experiment with P. aeruginosa 6065Y was 2 µg/mL (≈ 2.42 µM); in the experiment on P. aeruginosa 43 (setting [5]), 1 µg/mL (≈ 1.21 µM); in the experiment with P. aeruginosa 37 (setting [6]), 8 µg/mL (≈ 9.66 µM); with A. baumannii 52 (setting [7]) it was greater than 128 µg/mL; in experiment [1] (setting [8]) it was 1 µg/mL (≈ 1.21 µM); in the experiment on A. baumannii 49 (setting [7]), greater than 128 µg/mL. In addition, the MIC90 in the experiment with E. coli AG100 (setting [9]) came to 0.25 µg/mL (≈ 0.302 µM); with E. cloacae β19 (setting [10]), 4 µg/mL (≈ 4.83 µM); in the experiment with P. aeruginosa 1912E (setting [11]) it was 1 µg/mL (≈ 1.21 µM); in the experiment with A. baumannii 46 (setting [7]) it was 4 µg/mL (≈ 4.83 µM); in the experiment on K. pneumoniae β14 (setting [2]), 8 µg/mL (≈ 9.66 µM); with K. pneumoniae β11 (setting [2]), 64 µg/mL (≈ 77.3 µM). Also, the MIC90 in the experiment with K. pneumoniae 2011E (setting [12]) is 2 µg/mL (≈ 2.42 µM).
